Laboratory results taken from patent EP3366310A1, “L-ARABINOSE AND USES THEREOF AGAINST VIBRIO GENUS BACTERIA” (priority 2017, dated 2018).

What was measured:
[1] = tested on: V. cholerae N16961; test: Growth curves (optical density at 600 nm over time); assay type: cell-based, Vibrio cholerae; details: for effect on V. cholerae growth or morphology: M9-MM, 0.2% of carbon source (Table 1 and Figure 5)
Procedure: Cells were grown at 30°C in M9 minimal medium supplemented with 0.2% fructose and 1 µg/ml thiamine (M9-MM) and M9-MM + 0.1% casamino acids (M9-MM + CAA) in a 96-well microtiter plate and the optical density at 600 nm followed over time in a Tecan plate reader. The growth curves plotted are the average of three replicates; the standard deviation is represented for each time point.
(§1) During experiments in which inventors used an arabinose-inducible promoter to express fluorescently tagged proteins in V. cholerae, they occasionally observed the presence of spherical cells. […]. To better understand this phenotype, inventors grew V. cholerae cells to exponential phase in different liquid media and added increasing concentrations of L-Ara. After a few hours, they inspected the cells morphology at the microscope. […] To see the effect of L-Ara on cell proliferation and growth, overnight cultures were diluted into fresh media containing increasing amounts of the inducer. The OD of these cultures was monitored over time (Figure 2). […].

[2] = tested on: EPV50; test: Muropeptide analysis (peptidoglycan isolation and UPLC); assay type: cell-based, Vibrio cholerae
Procedure: EPV50 overnight cultures were diluted 200 times in M9-MM and grown at 30°C. 100 ml were centrifuged after 7 hours of growth and 1L of culture to which 0.2% L-Ara was added after 2 hours was harvested after further 5 hours of incubation. Cells were checked for complete transition to spherical morphology at the microscope. Previously described methods were followed for muropeptide isolation and ultra-performance liquid chromatography (UPLC) analysis [Desmarais et al. and Möll et al.]. After boiling for 2 hours cell pellets with SDS (sodium dodecyl sulfate) the lysates were left stirring over night at room temperature. Cell wall material was pelleted, washed with MQ water to remove the SDS, and digested with pronase E to remove Braun's lipoprotein. Purified peptidoglycan was re-suspended in MQ water and treated overnight with muramidase at 37°C. Soluble muropeptides were reduced with sodium borohydride and the pH then adjusted to 3.5 with phosphoric acid. Samples were injected in an ultra-performance liquid chromatography (UPLC) system to obtain the muropeptide profiles. UPLC separation was performed on a Waters UPLC system equipped with an ACQUITY UPLC BEH C18 Column, 130 Å, 1.7 µm, 2.1 mm × 150 mm (Waters) and a dual wavelength absorbance detector using a linear gradient from buffer A (phosphate buffer 50 mM, pH 4.35) to buffer B (phosphate buffer 50 mM, pH 4.95, methanol 15% (vol/vol)) in a 22-min run with a 0.25 mL/min flow. Elution of muropeptides was detected at 204 nm. Identity of the peaks was assigned by comparison of the retention times and profiles to other chromatograms in which mass spectrometry data has been collected. The relative amounts of the muropeptides and the percentage of cross-linkage were calculated as described by Glauner et al. To calculate the amount of peptidoglycan per cell, the total area of the muropeptides was normalized to the OD of the culture. All values are the means of three independent experiments.

[3] = tested on: V. cholerae N16961; test: Microscopy inspection of cell morphology (spherical cells) after exposure to carbon sources; assay type: cell-based, Vibrio cholerae
Procedure: Cells were grown to exponential phase and spread on a 1% (w/v) agar pad (ultrapure agarose, Invitrogen) for analysis. For snapshot analyses, cells images were acquired using a DM6000-B (Leica) microscope. For time-lapse analyses the agarose pad was made using M9-MM and images were acquired using an Evolve 512 EMCCD camera (Roper Scientific) attached to an Axio Observe spinning disk (Zeiss).
as §1

[4] = tested on: EPV50 (derived from El Tor isolate N16961); test: microbe, parasite or virus in culture; assay type: cell-based; details: Vibrio cholerae
Procedure: An EPV50 (derived from El Tor isolate N16961) overnight culture was diluted 200 times in M9-MM, followed by 2 hours of growth at 30°C before 0.2% L-Ara was added and growth continued for other 5 hours. Cells were checked for complete transition to spherical morphology at the microscope. Serial dilutions of t0 (before L-Ara addition) and t1 (after L-Ara treatment) samples were plated on Luria Bertani (LB) agarose plates and the number of colonies used to calculate the CFU at t0 and t1. The ratio CFU t1 / CFU t0 is used to calculate the percentage of cells able to survive L-Ara treatment and revert to proliferating cells.

[5] = muropeptide group, M9-MM, 0.2% L-Ara for 5 hours
[6] = M9-MM supplemented with casamino acids (CAA)

Structure (SMILES)	effect on V. cholerae growth or morphology [1]	effect on cell growth (OD) ([1]; M9-MM and M9-MM+CAA, increasing amounts of L-Ara)	Anhydro-muropeptides (%) [2, 5]	DAP-DAP cross-linked muropeptides (%) [2, 5]	Dimers (%) [2, 5]	Trimers (%) [2, 5]	Monomers (%) ([2]; muropeptide group, M9-MM, 0.2% L-Ara for 5 hours, mean of three experiments (±SD))	Average glycan chain length ([2]; peptidoglycan feature, calculated from the number of anhydro-muropeptides, M9-MM, 0.2% L-Ara for 5 hours)	Total cross-linkage (%) ([2]; peptidoglycan feature, M9-MM, 0.2% L-Ara for 5 hours)	amount of peptidoglycan per cell, times lower than in rod-shaped (non-treated) cells ([2]; spherical L-Ara-treated bacteria, 0.2% L-Ara)	glycan chains, times shorter than in non-treated cells ([2]; spherical L-Ara-treated cells, 0.2% L-Ara)	L-Ara concentration at which all cells exhibited the spherical phenotype [3, 6]	L-Ara concentration at which spherical cells started to appear [3, 6]	cell morphology ([3]; M9-MM, 0.02% L-Ara, a few hours)	cell shape ([3]; M9-MM, 0.1% L-Ara (Figure 1A))	L-Ara concentration at which cells became completely round ([3]; M9-MM, a few hours)	L-Ara concentration that triggers a toxic response (stop of proliferation, loss of rod-shape) ([3]; Vibrio cholerae, summary statement)	killing at 0.2 % ([4]; 5 h, read-out: cell death)	viability at 0.2 % ([4]; M9-MM, 0.2% L-Ara for 5 hours, ratio CFU t1 / CFU t0, read-out: percentage of survival to L-Ara treatment)
O=C[C@@H](O)[C@H](O)[C@H](O)CO [D-Arabinose, reference compound]	none of them, including D-Arabinose, affected V. cholerae growth or morphology																		
O=C[C@H](O)[C@@H](O)[C@@H](O)CO [L-Arabinose]	deleterious effects on cell growth or cell morphology	arrested V. cholerae cell growth	21.9 (±3.7) %	7.5 (±0.9) %	47.2 (±3.1) %	12.6 (±4.8) %	40.2 (±3.2) %	7.5 (±1.1)	47.2 (±5.0) %	around 10 times	around 2 times	0.5%	0.2%	normal rod-shape	spherical shape with a heterogeneous diameter size	0.1%	0.02%	~50%	~50%
